Assay results published in patent US6900239B2, “Tumor chemopotentiation using isocoumarin derivatives” (ILWZ ILEX Products, Inc., priority 2000, dated 2005).

Assays:
[1] = tested on: MM1.S human multiple myeloma cells; experiment: Cell viability by MTT assay; assay type: cell-based
Experimental: NM-3 was dissolved in Mg^2+ and Ca^2+ free phosphate buffered saline (PBS) by adding appropriate volume of 10 N NaOH (final pH<7.0). DEX was dissolved in absolute ethanol and diluted with PBS. Final concentration of ethanol in the culture medium was 0.5% or less. DOX was dissolved in PBS.
The human multiple myeloma cell line MM1.S was maintained in RPMI1640 medium supplemented with 10% fetal bovine serum, 100 units/ml penicillin, and 100 μg/ml streptomycin at 37° C. in an atmosphere of 5% CO2 in air. Cells (3×10^4 cells/well) were seeded in 96 well-plates and incubated with increasing concentrations of DEX or DOX in the presence or absence of NM-3. NM-3 was added at concentrations of 0, 50, 100 and 200 μg/ml 2 hours before the addition of DOX or DEX. After 24 hours of DOX or DEX exposure, 10 μl of MTT reagent (Roche Molecular Biochemicals, final concentration 0.5 mg/ml) was added to each well and allowed to incubate for 4 hours. After the incubation, 100 μl of solubilization solution (10% sodium dodecyl sulfate in 0.01M HCl) was added to each well and allowed to incubate overnight. Optical density at 565 nm was determined using a spectrophotometer (Molecular Devices Corp.).

B16-BL6 melanoma cells = experiment: Experimental tumor metastasis (lung colonies); assay type: in vivo, BDF1 mice; conditions: for Inhibition (%): days 1~13; for Number of lung metastases (Mean ± S.D.): days 1~13, counted day 14
Text: To determine the antitumor effect of NM-3 on metastatic tumor growth, B16-BL6 melanoma cells (2×10^4 cells per mouse) were transplanted into BDF1 mice (female, 5 weeks old) via the tail vein. NM-3 was continuously administered via the oral route for 13 days following transplantation of the tumor cells. On day 14, the lungs were excised and fixed, and the metastatic colony numbers were counted.

colon 26 adenocarcinoma = experiment: Combination with cyclophosphamide, survival; assay type: in vivo, BALB/c mice
Experimental: To determine the effect on tumor growth of NM-3 treatment combined with simultaneous cyclophosphamide treatment, colon 26 adenocarcinoma cells (5×10^4 cells per mouse) were subcutaneously transplanted into BALB/c mice (female, 7 weeks old) in the inguinal area. NM-3 was continuously orally administered from day 1 to day 72 after the transplantation except on day 14 when cyclophosphamide was dosed.

[2] = tested on: Lewis Lung carcinoma (LLC) tumors; experiment: Radiation sensitivity of Lewis Lung carcinoma in vivo; parameters: species or system C57BL/6 female mice
Experimental: To determine whether NM-3 treatment increases the radiation sensitivity of tumors in vivo, Lewis Lung carcinoma (LLC) tumors were established in C57BL/6 female mice (Frederick Cancer Research Institute) prior to NM-3 and radiation treatment. LLC cells (1×10^6 cells) were injected in the right hind limb of the mice and tumors were allowed to grow a volume of 250-350 mm^3. Tumor volumes were determined by direct measurements with calipers calculated by the formula: V=length×width×depth/2. Mice were then divided into groups and treated with NM-3 (100 mg/kg total) or PBS for two days before beginning radiation therapy. Animals then received NM-3 (25 mg/kg/day, i.p.) or PBS approximately four hours prior to radiation treatment. Tumors were irradiated using a GE Maxitron X-ray generator operating at 150 kV, 30 mA, using a 1 mm aluminum filter at a dose rate of 188 cGy/minute. Mice were shielded with lead except for the tumor-bearing area in the hind limb. Treatments and tumor measurements continued for a period of 17 days (see FIG. 4). […] Whereas control tumors reached 8 initial tumor volumes (Vo) after 8 days, X-ray treated tumors required 16 days to grow to this size. […] For comparison, data are plotted with two additional anti-angiogenic drugs, antiostatin and endostatin (see FIGS. 3B and 3C).

[3] = tested on: MDAMB-435 human breast tumor xenografts; experiment: MDAMB-435 orthotopic model, NM-3 with paclitaxel, second study (100 mm^3) and delivery routes; assay type: in vivo, female NCRNU nude mice
Experimental: In order to determine the effect of the combination of NM-3 with the cytotoxic drug, paclitaxel on human breast tumor xenografts, female NCRNU nude mice were implanted with MDAMB-435 cells into the subaxillary mammary fat pad. NM-3 was administered via intraperitoneal (i.p.) injection daily at doses ranging from 10-100 mg/kg; paclitaxel was administered via i.p. injection every 7 days, starting on day 0, at 10 mg/kg.
In a second study, treatment was initiated when tumor volumes reached 100 mm^3. Paclitaxel was administered at the fixed dose of 12.5 mg/kg, q7d and NM-3 was dosed at 10 and 100 mg/kg, i.p. daily for 28 days.
A comparison was also made between different delivery routes of NM-3 in the combination studies. NM-3 given i.p. daily, bid, and continuously using Alzet mini osmotic pumps in combination with paclitaxel was evaluated for effectiveness in reducing tumor growth.

Ehrlich carcinoma = experiment: Ehrlich solid tumor growth; assay type: in vivo, ICR mice; conditions: for Inhibition (%): days 1~14; for Mean Tumor Weight (mg ± S.D.): days 1~14, measured day 15
Experimental: To determine the antitumor effect of NM-3 on growth of a solid tumor in vivo, 4×10^6 Ehrlich carcinoma cells per mouse were subcutaneously transplanted into ICR mice (female, 6 weeks old) in the inguinal area. NM-3 was continuously administered via the oral route for 14 days. Tumor weights were then measured on day 15 (Table 2). […] Thus, NM-3 treatment is associated with a significant reduction in the growth of solid tumors.

[4] = NM-3 1 mg/kg p.o. days 1-13, 15-72 alone
[5] = NM-3 5 mg/kg p.o. days 1-13, 15-72 alone

`COc1cc(O)c2c(=O)oc(C(C)C(=O)O)cc2c1` (stereo not shown) [NM-3, 2-(8-hydroxy-6-methoxy-1-oxo-1H-2-benzopyran-3-yl) propionic acid] was tested, and the “Potentiation of DEX-induced cell death” value ([1]; NM-3 50-200 μg/ml added 2 hours before DEX, 24 hours) was “potentiated DEX-induced cell death”, the Cell viability ([1]; NM-3 alone, 50-200 μg/ml) was “only slightly decreased the cell viability” and the “Inhibition (%)” value (B16-BL6 melanoma cells; 0.08 mg/kg p.o.) was −5.3%. The “Number of lung metastases (Mean ± S.D.)” value (B16-BL6 melanoma cells; 0.08 mg/kg p.o.) was 88.7 ± 16.1, the “Inhibition (%)” value (B16-BL6 melanoma cells; 0.31 mg/kg p.o.) was 24.0% and the “Number of lung metastases (Mean ± S.D.)” value (B16-BL6 melanoma cells; 0.31 mg/kg p.o.) was 64.0 ± 23.8. The “Inhibition (%)” value (B16-BL6 melanoma cells; 1.25 mg/kg p.o.) was 13.8%, the “Number of lung metastases (Mean ± S.D.)” value (B16-BL6 melanoma cells; 1.25 mg/kg p.o.) was 72.6 ± 20.6 and the “Inhibition (%)” value (B16-BL6 melanoma cells; 5.0 mg/kg p.o.) was 18.8%. For the same compound, the “Number of lung metastases (Mean ± S.D.)” value (B16-BL6 melanoma cells; 5.0 mg/kg p.o.) was 68.4 ± 16.9, the “Number of pleural metastatic foci versus control” value (B16-BL6 melanoma cells; 0.08 to 5 mg/kg p.o.) was “reduction in the number of pleural metastatic foci” and the “Mean Survival Days (days ± S.D.)” value (colon 26 adenocarcinoma; [4]) was 33.9 ± 13.6 days. The “T/C (%)” value (colon 26 adenocarcinoma; [4]) was 102.7%, the “Mean Survival Days (days ± S.D.)” value (colon 26 adenocarcinoma; [5]) was 23.5 ± 3.7 days and the “T/C (%)” value (colon 26 adenocarcinoma; [5]) was 71.2%. For the same compound, the “Survival times versus control” value (colon 26 adenocarcinoma; NM-3 alone, 1 or 5 mg/kg) was “did not increase survival times”, the Further tumor growth ([2]; NM-3 25 mg/kg/day i.p. added to radiotherapy, 17 days) was “markedly reduced” and the Tumor growth ([2]; NM-3 alone) was “did not inhibit tumor growth at all”. The “Radiation sensitization of tumors” value ([2]; combined with X-ray treatment) was “dramatically enhances the sensitivity”, the “% Tumor Growth Inhibition” value ([3]; NM-3 100 mg/kg I.P. daily alone) was 26.67% and the “Final Tumor Ratio (V/Vo) +/− SEM” value ([3]; NM-3 100 mg/kg I.P. daily alone, 28 days) was 4.70 ± 0.56 V/Vo. The “Mice with Complete Shrinkage” value ([3]; NM-3 100 mg/kg I.P. daily alone, n 9) was 0, the Tumor growth inhibition ([3]; NM-3 alone, daily dose of 10 mg/kg) was “no significant tumor growth inhibition” and the “Inhibition (%)” value (Ehrlich carcinoma; 0.63 mg/kg p.o.) was 33.1%. For the same compound, the “Inhibition (%)” value (Ehrlich carcinoma; 1.25 mg/kg p.o.) was 59.5%, the “Mean Tumor Weight (mg ± S.D.)” value (Ehrlich carcinoma; 1.25 mg/kg p.o.) was 497.7 ± 265.5 mg and the “Inhibition (%)” value (Ehrlich carcinoma; 2.5 mg/kg p.o.) was 57.7%. The “Mean Tumor Weight (mg ± S.D.)” value (Ehrlich carcinoma; 2.5 mg/kg p.o.) was 519.5 ± 319.3 mg, the “Inhibition (%)” value (Ehrlich carcinoma; 5 mg/kg p.o.) was 52.0% and the “Mean Tumor Weight (mg ± S.D.)” value (Ehrlich carcinoma; 5 mg/kg p.o.) was 589.7 ± 338.3 mg. The “Tumor size versus control” value (Ehrlich carcinoma; 1.25 to 5 mg/kg p.o.) was “significantly reduced in size”.
